Test results taken from patent US11078197B2, “5-membered and bicyclic heterocyclic amides as inhibitors of rock” (BRISTOL-MYERS SQUIBB COMPANY, priority 2017, dated 2021).

The molecules below were run against ROCK2 (Homo sapiens (Human), UniProt O75116) (assay: ROCK2 assay (peptide phosphorylation, LABCHIP 3000 Reader)). Details: 5 μM ATP, 1.5 μM peptide substrate, dose-response.
Assay type: biochemical
Procedure: After incubation, the reaction was terminated by the addition of EDTA and the phosphorylated and non-phosphorylated peptides separated using a LABCHIP®3000 Reader (Caliper Life Sciences). […] Compounds were tested in dose-response format, and the inhibition of kinase activity was calculated at each concentration of compound. […] Representative Examples were tested in the ROCK2 assay described above and found having ROCK2 inhibitory activity.

Chain of ROCK2 (O75116 whole entry, species assumed): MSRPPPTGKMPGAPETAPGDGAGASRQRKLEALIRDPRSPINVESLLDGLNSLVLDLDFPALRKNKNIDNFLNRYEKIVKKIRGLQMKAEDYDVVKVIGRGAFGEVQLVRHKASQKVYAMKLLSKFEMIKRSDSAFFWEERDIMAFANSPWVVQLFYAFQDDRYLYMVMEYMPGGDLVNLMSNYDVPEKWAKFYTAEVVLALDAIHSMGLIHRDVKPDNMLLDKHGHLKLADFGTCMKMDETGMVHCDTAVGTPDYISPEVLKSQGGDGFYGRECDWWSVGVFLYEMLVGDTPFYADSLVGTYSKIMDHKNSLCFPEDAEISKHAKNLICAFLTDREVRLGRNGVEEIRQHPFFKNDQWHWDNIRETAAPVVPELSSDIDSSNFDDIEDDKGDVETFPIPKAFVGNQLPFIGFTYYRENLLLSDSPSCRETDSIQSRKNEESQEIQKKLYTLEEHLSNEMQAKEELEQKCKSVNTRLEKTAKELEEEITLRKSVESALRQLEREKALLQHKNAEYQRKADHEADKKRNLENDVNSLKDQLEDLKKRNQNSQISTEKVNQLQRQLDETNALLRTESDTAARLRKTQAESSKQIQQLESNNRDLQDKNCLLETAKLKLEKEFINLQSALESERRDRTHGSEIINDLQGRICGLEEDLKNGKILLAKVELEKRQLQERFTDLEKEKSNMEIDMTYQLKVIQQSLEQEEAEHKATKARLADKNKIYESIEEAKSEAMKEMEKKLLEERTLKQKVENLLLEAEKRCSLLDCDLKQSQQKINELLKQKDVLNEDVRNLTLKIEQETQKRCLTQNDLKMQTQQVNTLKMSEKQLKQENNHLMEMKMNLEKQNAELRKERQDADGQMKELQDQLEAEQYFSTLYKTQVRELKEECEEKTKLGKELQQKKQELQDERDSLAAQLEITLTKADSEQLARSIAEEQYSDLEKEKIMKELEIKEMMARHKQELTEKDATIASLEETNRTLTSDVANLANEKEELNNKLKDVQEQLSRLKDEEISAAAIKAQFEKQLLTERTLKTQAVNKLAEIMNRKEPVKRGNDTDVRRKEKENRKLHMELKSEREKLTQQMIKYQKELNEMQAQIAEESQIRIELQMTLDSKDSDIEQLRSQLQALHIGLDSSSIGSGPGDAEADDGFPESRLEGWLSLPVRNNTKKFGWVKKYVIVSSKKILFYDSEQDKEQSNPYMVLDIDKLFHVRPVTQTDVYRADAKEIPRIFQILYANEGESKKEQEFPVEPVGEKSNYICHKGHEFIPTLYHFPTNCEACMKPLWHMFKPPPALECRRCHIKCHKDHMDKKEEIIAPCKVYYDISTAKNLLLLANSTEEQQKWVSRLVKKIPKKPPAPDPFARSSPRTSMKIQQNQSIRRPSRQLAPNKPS

| Structure (SMILES) | IC50 [nM] |
| --- | --- |
| CC(C)(O)COc1ccc2c(C(=O)N[C@H]3C[C@]4(C3)C[C@H](Oc3nn5c(-c6ccccc6)cccc5c3C(N)=O)C4)nn(C(F)F)c2c1 (stereo partly drawn) [Example 134, 1-(difluoromethyl)-6-(2-hydroxy-2-methylpropoxy)-N-[(4s)-6-({3-carbamoyl-7-phenylpyrazolo[1,5-a]pyridin-2-yl}oxy)spiro[3.3]heptan-2-yl]-1H-indazole-3-carboxamide] | 143 |
| CC(C)(O)COc1ccc2c(C(=O)N[C@H]3C[C@]4(C3)C[C@H](Oc3nn5cc(-c6ccc(F)nc6)ccc5c3C(N)=O)C4)nn(C(F)F)c2c1 (stereo partly drawn) [Example 135, 1-(difluoromethyl)-6-(2-hydroxy-2-methylpropoxy)-N-[(4s)-6-{[3-carbamoyl-6-(6-fluoropyridin-3-yl)pyrazolo[1,5-a]pyridin-2-yl]oxy}spiro[3.3]heptan-2-yl]-1H-indazole-3-carboxamide] | 390 |
| CC(C)(O)COc1ccc2c(C(=O)N[C@H]3C[C@]4(C3)C[C@H](Oc3nn5ccc(-c6ccc(F)nc6)cc5c3C(N)=O)C4)nn(C(F)F)c2c1 (stereo partly drawn) [Example 136, 1-(difluoromethyl)-6-(2-hydroxy-2-methylpropoxy)-N-[(4s)-6-{[3-carbamoyl-5-(6-fluoropyridin-3-yl)pyrazolo[1,5-a]pyridin-2-yl]oxy}spiro[3.3]heptan-2-yl]-1H-indazole-3-carboxamide] | 112 |
| CC(C)(O)COc1ccc2c(C(=O)N[C@H]3C[C@]4(C3)C[C@H](Oc3nn5ccc(-c6ccccc6)cc5c3C(N)=O)C4)nn(C(F)F)c2c1 (stereo partly drawn) [Example 137, 1-(difluoromethyl)-6-(2-hydroxy-2-methylpropoxy)-N-[(4s)-6-({3-carbamoyl-5-phenylpyrazolo[1,5-a]pyridin-2-yl}oxy)spiro[3.3]heptan-2-yl]-1H-indazole-3-carboxamide] | 150 |
| COc1cccc2c(C(N)=O)c(O[C@H]3C[C@@]4(C[C@H](NC(=O)c5nn(C(F)F)c6cc(OCC(C)(C)O)ccc56)C4)C3)nn12 (stereo partly drawn) [Example 138, 1-(difluoromethyl)-6-(2-hydroxy-2-methylpropoxy)-N-[(4s)-6-({3-carbamoyl-7-methoxypyrazolo[1,5-a]pyridin-2-yl}oxy)spiro[3.3]heptan-2-yl]-1H-indazole-3-carboxamide] | 22 |
| CC(C)CC1NC(=O)N([C@H]2CC3(C[C@H](Oc4nn5ccccc5c4C(N)=O)C3)C2)C1=O (stereo partly drawn) [Example 139, 2-(((2S,4s,6S)-6-(4-isobutyl-2,5-dioxoimidazolidin-1-yl)spiro[3.3]heptan-2-yl)oxy)pyrazolo[1,5-a]pyridine-3-carboxamide] | 208 |
| CC(CC1NC(=O)N([C@H]2C[C@@]3(C[C@H](Oc4nn5ccccc5c4C(N)=O)C3)C2)C1=O)C(F)(F)F (stereo partly drawn) [Example 140, 2-{[(4s)-6-[2,5-dioxo-4-(3,3,3-trifluoro-2-methylpropyl)imidazolidin-1-yl]spiro[3.3]heptan-2-yl]oxy}pyrazolo[1,5-a]pyridine-3-carboxamide] | 62.1 |
| CC(CC1NC(=O)N([C@H]2C[C@@]3(C[C@H](Oc4nn5ccccc5c4C(N)=O)C3)C2)C1=O)C(F)(F)F (stereo partly drawn) [Example 141, 2-{[(4s)-6-[2,5-dioxo-4-(3,3,3-trifluoro-2-methylpropyl)imidazolidin-1-yl]spiro[3.3]heptan-2-yl]oxy}pyrazolo[1,5-a]pyridine-3-carboxamide] | 203 |
| CC(C)CNc1nnc(C(=O)N[C@H]2C[C@]3(C2)C[C@H](Oc2nc4c(cc2C(N)=O)COCC4)C3)s1 (stereo partly drawn) [Example 142, 5-[(2-methylpropyl)amino]-N-[(4s)-6-({3-carbamoyl-5H,7H,8H-pyrano[4,3-b]pyridin-2-yl}oxy)spiro[3.3]heptan-2-yl]-1,3,4-thiadiazole-2-carboxamide] | 60.3 |
| NC(=O)c1cc2c(nc1O[C@H]1C[C@@]3(C[C@H](NC(=O)c4cccc(OC(F)(F)F)c4)C3)C1)CCOC2 (stereo partly drawn) [Example 143, 2-{[(4s)-6-[3-(trifluoromethoxy)benzamido]spiro[3.3]heptan-2-yl]oxy}-5H,7H,8H-pyrano[4,3-b]pyridine-3-carboxamide] | 109 |
| Cc1nc(NCC(C)(C)O)sc1C(=O)N[C@H]1C[C@]2(C1)C[C@H](Oc1nc3c(cc1C(N)=O)COCC3)C2 (stereo partly drawn) [Example 144, 2-[(2-hydroxy-2-methylpropyl)amino]-4-methyl-N-[(4s)-6-({3-carbamoyl-5H,7H,8H-pyrano[4,3-b]pyridin-2-yl}oxy)spiro[3.3]heptan-2-yl]-1,3-thiazole-5-carboxamide] | 367 |
| Cc1nc(NCC(C)C)sc1C(=O)N[C@H]1C[C@]2(C1)C[C@H](Oc1nc3c(cc1C(N)=O)COCC3)C2 (stereo partly drawn) [Example 145, 4-methyl-2-[(2-methylpropyl)amino]-N-[(4s)-6-({3-carbamoyl-5H,7H,8H-pyrano[4,3-b]pyridin-2-yl}oxy)spiro[3.3]heptan-2-yl]-1,3-thiazole-5-carboxamide] | 111 |
| Cn1ncc2cc(C(N)=O)c(O[C@H]3C[C@@]4(C[C@H](NC(=O)c5cnn6c(C7CC7)c(OCC(C)(C)O)ccc56)C4)C3)nc21 (stereo partly drawn) [Example 147, 7-cyclopropyl-6-(2-hydroxy-2-methylpropoxy)-N-[(4s)-6-({5-carbamoyl-1-methyl-1H-pyrazolo[3,4-b]pyridin-6-yl}oxy)spiro[3.3]heptan-2-yl]pyrazolo[1,5-a]pyridine-3-carboxamide] | 2.9 |
| Cn1ncc2cc(C(N)=O)c(O[C@H]3C[C@@]4(C[C@H](NC(=O)c5cccc(CO)n5)C4)C3)nc21 (stereo partly drawn) [Example 148, 6-(hydroxymethyl)-N-[(4s)-6-({5-carbamoyl-1-methyl-1H-pyrazolo[3,4-b]pyridin-6-yl}oxy)spiro[3.3]heptan-2-yl]pyridine-2-carboxamide] | 52.7 |
| Cn1ncc2cc(C(N)=O)c(O[C@H]3C[C@@]4(C[C@H](NC(=O)c5nnc(-c6ccc(C(F)(F)F)cc6)s5)C4)C3)nc21 (stereo partly drawn) [Example 149, N-[(4s)-6-({5-carbamoyl-1-methyl-1H-pyrazolo[3,4-b]pyridin-6-yl}oxy)spiro[3.3]heptan-2-yl]-5-[4-(trifluoromethyl)phenyl]-1,3,4-thiadiazole-2-carboxamide] | 14.5 |
| Cc1c(C(=O)N[C@H]2C[C@]3(C2)C[C@H](Oc2nc4c(cnn4C)cc2C(N)=O)C3)cnn1-c1ccc(S(C)(=O)=O)cc1 (stereo partly drawn) [Example 150, 1-(4-methanesulfonylphenyl)-5-methyl-N-[(4s)-6-({5-carbamoyl-1-methyl-1H-pyrazolo[3,4-b]pyridin-6-yl}oxy)spiro[3.3]heptan-2-yl]-1H-pyrazole-4-carboxamide] | 7.1 |
| Cn1ncc2cc(C(N)=O)c(O[C@H]3C[C@@]4(C[C@H](NC(=O)c5nnc(-c6ccc(F)cc6F)s5)C4)C3)nc21 (stereo partly drawn) [Example 151, 5-(2,4-difluorophenyl)-N-[(4s)-6-({5-carbamoyl-1-methyl-1H-pyrazolo[3,4-b]pyridin-6-yl}oxy)spiro[3.3]heptan-2-yl]-1,3,4-thiadiazole-2-carboxamide] | 13.6 |
| Cc1c(C(=O)N[C@H]2C[C@]3(C2)C[C@H](Oc2nc4c(cnn4C)cc2C(N)=O)C3)cnn1-c1ccc(C#N)cc1 (stereo partly drawn) [Example 152, 1-(4-cyanophenyl)-5-methyl-N-[(4s)-6-({5-carbamoyl-1-methyl-1H-pyrazolo[3,4-b]pyridin-6-yl}oxy)spiro[3.3]heptan-2-yl]-1H-pyrazole-4-carboxamide] | 6.3 |
| Cc1c(C(=O)N[C@H]2C[C@]3(C2)C[C@H](Oc2nc4c(cnn4C)cc2C(N)=O)C3)cnn1-c1ccc(-c2cnn(C)c2)cc1 (stereo partly drawn) [Example 153, 5-methyl-1-[4-(1-methyl-1H-pyrazol-4-yl)phenyl]-N-[(4s)-6-({5-carbamoyl-1-methyl-1H-pyrazolo[3,4-b]pyridin-6-yl}oxy)spiro[3.3]heptan-2-yl]-1H-pyrazole-4-carboxamide] | 0.8 |
| Cn1ncc2cc(C(N)=O)c(O[C@H]3C[C@@]4(C[C@H](NC(=O)c5cc(-c6ccc(S(C)(=O)=O)cc6)n(C(F)F)n5)C4)C3)nc21 (stereo partly drawn) [Example 154, 1-(difluoromethyl)-5-(4-methanesulfonylphenyl)-N-[(4s)-6-({5-carbamoyl-1-methyl-1H-pyrazolo[3,4-b]pyridin-6-yl}oxy)spiro[3.3]heptan-2-yl]-1H-pyrazole-3-carboxamide] | 2.3 |
| Cn1ncc2cc(C(N)=O)c(O[C@H]3C[C@@]4(C[C@H](NC(=O)c5cc(-c6ccc(C#N)cc6)n(C(F)F)n5)C4)C3)nc21 (stereo partly drawn) [Example 155, 5-(4-cyanophenyl)-1-(difluoromethyl)-N-[(4s)-6-({5-carbamoyl-1-methyl-1H-pyrazolo[3,4-b]pyridin-6-yl}oxy)spiro[3.3]heptan-2-yl]-1H-pyrazole-3-carboxamide] | 2.7 |
| Cn1ncc2cc(C(N)=O)c(O[C@H]3C[C@@]4(C[C@H](NC(=O)c5nnc(-c6cccc(S(C)(=O)=O)c6)s5)C4)C3)nc21 (stereo partly drawn) [Example 156, 5-(3-methanesulfonylphenyl)-N-[(4s)-6-({5-carbamoyl-1-methyl-1H-pyrazolo[3,4-b]pyridin-6-yl}oxy)spiro[3.3]heptan-2-yl]-1,3,4-thiadiazole-2-carboxamide] | 4.3 |
| Cn1ncc2cc(C(N)=O)c(O[C@H]3C[C@@]4(C[C@H](NC(=O)c5cnc6c(cnn6CC(F)F)c5)C4)C3)nc21 (stereo partly drawn) [Example 157, 1-methyl-6-{[(4s)-6-[1-(2,2-difluoroethyl)-1H-pyrazolo[3,4-b]pyridine-5-amido]spiro[3.3]heptan-2-yl]oxy}-1H-pyrazolo[3,4-b]pyridine-5-carboxamide] | 10.9 |
| Cc1c(C(=O)N[C@H]2C[C@]3(C2)C[C@H](Oc2nc4c(cnn4C)cc2C(N)=O)C3)cnn1-c1ccc(-c2cnn(CC(F)F)c2)cc1 (stereo partly drawn) [Example 158, 1-{4-[1-(2,2-difluoroethyl)-1H-pyrazol-4-yl]phenyl}-5-methyl-N-[(4s)-6-({5-carbamoyl-1-methyl-1H-pyrazolo[3,4-b]pyridin-6-yl}oxy)spiro[3.3]heptan-2-yl]-1H-pyrazole-4-carboxamide] | 4.6 |
